Measured values as given in PMC7876048, “Mutant-selective degradation by BRAF-targeting PROTACs” (Nature Communications, 2021).

Key:
[1] = system: SK-MEL-28 cells (Class 1, BRAF^V600E); assay: Cell proliferation (MTS) assay; type: cell-based; settings: Homo sapiens, 72 h, 3 days, read-out: EC50, cell growth
[2] = system: SK-MEL-239 C4 cells (BRAF^WT/BRAF-p61^V600E); assay: Cell proliferation (MTS) assay; type: cell-based; settings: 5 days
[3] = system: SK-MEL-246 cells (Class 2, BRAF^G469A); assay: Cell proliferation (MTS) assay; type: cell-based
[4] = system: H1666 cells (Class 3, BRAF^G466V); assay: Cell proliferation (MTS) assay; type: cell-based; settings: 5 days
[5] = system: CAL-12-T cells (Class 3, BRAF^G466V); assay: Cell proliferation (MTS) assay; type: cell-based; settings: 5 days
Protocol: […] 2 mg/ml MTS (Promega Corp., Madison, WI: G5421) and 25 μM phenazine methosulfate (Sigma, St. Louis, MO) were combined 19:1 and then added to cells (1 volume combined reagent: 5 volumes medium) and incubated for 1–3 h. Mitochondrial reduction of MTS to the formazan derivative was monitored by measuring the medium’s absorbance at 480 nm using a Perkin Elmer Envision Plate reader.

[6] = biological target: T1, BRAF^V600E (SK-MEL-28 cells, homozygous) (Homo sapiens, UniProt P15056, V600E); assay: BRAF degradation by immunoblot in SK-MEL-28 cells; type: cell-based
T1 construct: endogenous in cells; host or cells: SK-MEL-28
Protocol: (§1) Cells were plated in 6 well dishes (5 × 10^5–8 × 10^5 cells) and allowed to attach overnight. […] The plates were then placed on ice and washed 1x with chilled PBS and lysed in buffer containing 25 mM Tris-HCl [pH 7.4], 0.25% sodium deoxycholate, 150 mM NaCl, 1% Triton X-100, supplemented with protease inhibitors (1x Roche protease inhibitor cocktail) and phosphatase inhibitors (10 mM NaF, 1 mM Na3OV4, and 20 mM β-glycerophosphate). Lysates were then cleared at 21,000 g for 10 min at 4 °C. Protein concentrations of the supernatants were then quantified using a Pierce BCA Protein Assay. 12–40 µg of protein were separated using a gradient (4–20%) Criterion TGX precast gel and transferred unto a nitrocellulose membrane. The membranes were then blocked in 5% non-fat milk in TBST (Tris-buffered Saline with Tween 20) for 1 h before probing with the indicated primary antibody overnight. Membranes were imaged using Bio-Rad Image Lab software using ECL prime detection reagent (GE Healthcare, RPN2232 or ThermoScientific, 34095).
(§2) Western blot data was quantified by using the band feature in Image Lab, and values were averaged and analyzed in GraphPad Prism. DC50 and DMAX values were fitted using a three parameter [inhibitor] versus response and reported directly from the Prism output. Mean ± SD and unpaired t-tests were performed in GraphPad Prism.

[7] = system: MEK and ERK phosphorylation (SK-MEL-28 cells); assay: MEK and ERK phosphorylation by immunoblot in SK-MEL-28 cells; type: cell-based
Protocol: as §1, §2

BRAF V600E = BRAF V600E (Homo sapiens, UniProt P15056, V600E); assay: Elisa kinase inhibition assay (Carna Biosciences); type: biochemical; design: purchased Carna Biosciences; settings: Km ATP, duplicate
Protocol: Kinase assays were performed by Carna Biosciences by their protocol in duplicate using Km amounts of ATP calculated for each kinase.

Chain of BRAF V600E (P15056 whole entry V600E): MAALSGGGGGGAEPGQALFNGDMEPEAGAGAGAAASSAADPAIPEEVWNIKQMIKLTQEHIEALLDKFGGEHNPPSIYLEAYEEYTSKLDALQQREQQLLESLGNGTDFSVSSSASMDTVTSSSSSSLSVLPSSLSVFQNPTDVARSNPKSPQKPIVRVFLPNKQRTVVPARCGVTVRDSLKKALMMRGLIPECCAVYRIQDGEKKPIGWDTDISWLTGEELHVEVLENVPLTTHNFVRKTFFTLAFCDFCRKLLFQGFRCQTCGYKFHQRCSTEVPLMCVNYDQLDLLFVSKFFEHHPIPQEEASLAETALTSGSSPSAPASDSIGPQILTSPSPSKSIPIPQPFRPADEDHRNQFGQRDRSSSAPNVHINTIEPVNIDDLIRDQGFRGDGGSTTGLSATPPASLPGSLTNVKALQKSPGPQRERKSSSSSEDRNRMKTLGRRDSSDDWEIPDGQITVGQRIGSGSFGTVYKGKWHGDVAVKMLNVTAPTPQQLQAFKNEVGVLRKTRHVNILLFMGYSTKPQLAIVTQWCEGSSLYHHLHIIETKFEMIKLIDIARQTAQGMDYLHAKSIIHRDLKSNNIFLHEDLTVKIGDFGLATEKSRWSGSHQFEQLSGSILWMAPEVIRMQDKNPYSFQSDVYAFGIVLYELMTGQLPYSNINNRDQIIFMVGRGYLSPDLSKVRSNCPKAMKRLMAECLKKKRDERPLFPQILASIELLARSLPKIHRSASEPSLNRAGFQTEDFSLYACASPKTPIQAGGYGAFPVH
T1 sequence (P15056 whole entry V600E): as above

Row | EC50 [1] [nM] | effect on BRAF protein levels [6] | EC50 ([3]; 120 h, 5-day treatment, read-out: EC50, cell growth) [nM] | IC50 (BRAF V600E) [nM] | SMILES | effect on cell growth [2] | inhibition of cellular growth ([3]; 5 days, at concentrations above 1 μM, not sustained at 10 μM) | cell growth inhibition [4] | inhibition of cell growth / effect on cell viability [5] | concentration giving maximal inhibition of MEK and ERK phosphorylation / maximal suppression of p-ERK [7] [nM]
1 | 215 ± 1.09 |  |  |  | CCCS(=O)(=O)Nc1ccc(F)c(C(=O)c2c[nH]c3ncc(-c4ccc(Cl)cc4)cc23)c1F [vemurafenib, reference compound] | minimal effect | some inhibition | less than 50% | minimal effect on cell viability | 
2 | 243 ± 1.09 | did not decrease BRAF protein levels | 278 ± 1.07 | 30 | CCCS(=O)(=O)Nc1ccc(F)c(C(=O)c2c[nH]c3ncc(-c4ccc(N5CCN(CC(=O)N[C@H](C(=O)N6C[C@@H](O)C[C@H]6C(=O)NCc6ccc(-c7scnc7C)cc6)C(C)(C)C)CC5)cc4)cc23)c1F [SJF-0661] | minimal effect |  |  | minimal effect on cell viability | 100
